The test system of one assay is HEK-293 cells. Kind of assay: HEK-293 cytotoxicity detection (CellTiter-Glo). It is filed as cell-based. The conditions noted are these: Homo sapiens, 72 h, 72 h incubation, CellTiter-Glo luminescence, read-out: HEK293. The method, then:
HEK-293 cells were treated with compounds diluted in 0.2% DMSO, dilution was done according to the following protocol: (1) making 500× stock solution in DMSO from 5 mM by 4-fold dilution, total 8 doses were included; (2) making 2× solution in cell culture medium by transferring 0.5 ul 500× stock solution into 125 ul medium; (3) adding 50 ul of 2× solution to cells for incubation of 72 h.
25 μl of the CellTiter-Glo®Reagent [(Promega)—Cat No. G7572] was added to each well in the 96-well plate. The contents were mixed for 2 minutes on an orbital shaker to induce cell lysis. The plate was then allowed to incubate at room temperature for 10 minutes to stabilize luminescent signal. Luminescence was recorded on BMG PheraStar with luminescence protocol.
The inhibition percentage of the compound was calculated by the following equation: Inhibition percentage of Compound=100−100×(Signal-low control)/(High control-low control), wherein signal=each test compound group
High control=Cell group with added DMSO and without compound, indicating cells proliferation with no inhibition;
Imax is the maximum percentage of inhibition.
The IC50 value of a compound can be obtained by fitting the following equation
(§1) Wherein, X and Y are known values, and IC50, Hillslope, Top and Bottom are the parameters obtained by fitting with software. Y is the inhibition percentage (calculated from the equation), X is the concentration of the compound; IC50 is the concentration of the compound when the 50% inhibition is reached. The smaller the IC50 value is, the stronger the inhibitory ability of the compound is. Vice versa, the higher the IC50 value is, the weaker the ability the inhibitory ability of the compound is; Hillslope represents the slope of the fitted curve, generally around 1*; Bottom represents the minimum value of the curve obtained by data fitting, which is generally 0%±20%; Top represents the maximum value of the curve obtained by data fitting, which is generally 100%±20%. The experimental data were fitted by calculating and analyzing with Dotmatics data analysis software.

The target in the next assay is BTK (Homo sapiens, UniProt Q06187). Put plainly: BTK cell degradation in TMD-8 cells, HTRF assay. It is filed as cell-based. Also noted: endogenous in cells; host or cells: TMD-8 cells. The conditions noted are these: 6 h treatment, IC50 (DC50) of BTK degradation. As for the experimental part: TMD-8 cells were treated with compounds diluted in 0.2% DMSO, dilution was done according to the following protocol: (1) making 500× stock solution in DMSO from 1 mM by 6-fold dilution, total 8 doses were included; (2) making 2× solution in cell culture medium by transferring 0.5 μl 500× stock solution into 125 μl medium; (3) adding 15 μl of 2× solution to cells for incubation of 6 h.
After 6 h treatment, 10 μl 14×lysis buffer was added to each well; the plate was sealed and incubated for 30 min at room temperature on a plate shaker; Once the cells was lysed, 16 μL of cell lysate were transferred to a PE 384-well HTRF detection plate; 4 μL of pre-mixed HTRF antibodies were added to each well; the plate was covered with a plate sealer, and then spinned at 1000 rpm for 1 min, then incubated overnight at room temperature; the results were read on BMG PheraStar with HTRF protocol (337 nm-665 nm-620 nm).
The inhibition (degradation) percentage of the compound was calculated by the following equation: Inhibition percentage of Compound=100−100×(Signal-low control)/(High control-low control), wherein signal=each test compound group
High control=Cell group with added DMSO and without compound, indicating microplate readings without BTK degradation;
Dmax is the maximum percentage of inhibition (degradation).
The IC50 (DC50) value of a compound can be obtained by fitting the following equation
Y=Bottom+(TOP−Bottom)/(1+((IC50/X)^hillslope))
as §1, with “wherein,” for “Wherein,”

Each structure is given as a SMILES string. Bounds are passed on as bounds.

Chain of BTK (Q06187 whole entry): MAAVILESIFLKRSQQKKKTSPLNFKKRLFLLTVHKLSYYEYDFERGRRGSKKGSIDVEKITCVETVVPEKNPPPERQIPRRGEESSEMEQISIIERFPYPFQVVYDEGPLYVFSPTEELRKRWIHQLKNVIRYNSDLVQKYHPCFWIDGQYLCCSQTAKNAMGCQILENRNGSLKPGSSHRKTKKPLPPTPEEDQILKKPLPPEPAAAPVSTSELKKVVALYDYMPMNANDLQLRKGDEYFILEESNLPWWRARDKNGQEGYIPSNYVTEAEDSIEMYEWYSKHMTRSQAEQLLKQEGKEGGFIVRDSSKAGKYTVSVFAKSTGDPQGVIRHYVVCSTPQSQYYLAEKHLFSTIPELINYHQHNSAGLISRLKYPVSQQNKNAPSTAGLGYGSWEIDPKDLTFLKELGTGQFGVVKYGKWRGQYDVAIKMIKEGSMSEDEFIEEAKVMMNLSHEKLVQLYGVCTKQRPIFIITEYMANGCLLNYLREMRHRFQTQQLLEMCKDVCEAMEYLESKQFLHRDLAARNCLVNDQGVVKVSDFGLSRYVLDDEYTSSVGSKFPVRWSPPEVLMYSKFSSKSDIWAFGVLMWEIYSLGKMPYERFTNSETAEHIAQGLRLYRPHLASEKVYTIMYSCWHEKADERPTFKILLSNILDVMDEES

In the case of `NC(=O)c1c(-c2ccc(Oc3ccccc3)cc2)nn2c1Nc1ccc(N3CCN(c4ccc5c(c4)C(=O)N(C4CCC(=O)NC4=O)C5=O)CC3)cc1CC2` (stereo not shown) [Example A7, 7-(4-(2-(2,6-dioxopiperidin-3-yl)-1,3-dioxoisoindolin-5-yl)piperazin-1-yl)-2-(4-phenoxyphenyl)-9,10-dihydro-4H-benzo[d]pyrazolo[1,5-a][1,3]diazepine-3-carboxamide], the IC50 with HEK-293 cells was determined as 178 nM. The same molecule yielded a half-maximal degradation concentration (DC50) on BTK of 2.51 nM. The matching figures for `NC(=O)c1c(-c2ccc(Oc3ccccc3)cc2)nn2c1Nc1ccc(NC3CCN(CC4CCN(c5cc6c(cc5F)C(=O)N(C5CCC(=O)NC5=O)C6=O)CC4)CC3)cc1CC2` (stereo not shown) [Example A5, 7-((1-((1-(2-(2,6-dioxopiperidin-3-yl)-6-fluoro-1,3-dioxoisoindolin-5-yl)piperidin-4-yl)methyl)piperidin-4-yl)amino)-2-(4-phenoxyphenyl)-9,10-dihydro-4H-benzo[d]pyrazolo[1,5-a][1,3]diazepine-3-carboxamide]: 83.3 nM and 1.45 nM.

With `COc1ccc(C(F)(F)F)cc1C(=O)NCc1ccc(-c2nn3c(c2C(N)=O)Nc2ccc(N4CCN(CC5CCN(c6ccc(N7CCC(=O)NC7=O)cc6)CC5)CC4)cc2CC3)cc1` [Example C21, 7-(4-((1-(4-(2,4-dioxotetrahydropyrimidin-1(2H)-yl)phenyl)piperidin-4-yl)methyl)piperazin-1-yl)-2-(4-((2-methoxy-5-(trifluoromethyl)benzamido)methyl)phenyl)-9,10-dihydro-4H-benzo[d]pyrazolo[1,5-a][1,3]diazepine-3-carboxamide], the IC50 with HEK-293 cells is over 10000 nM. Further, the half-maximal degradation concentration (DC50) at BTK was 0.703 nM. Turning to `CC(C)(C)c1ccc(Oc2ccc(-c3nn4c(c3C(N)=O)Nc3ccc(C5CCN(CCC6CCN(c7ccc(N8CCC(=O)NC8=O)cc7)CC6)CC5)cc3CC4)cc2)cc1` [Example A29, 2-(4-(4-(tert-butyl)phenoxy)phenyl)-7-(1-(2-(1-(4-(2,4-dioxotetrahydropyrimidin-1(2H)-yl)phenyl)piperidin-4-yl)ethyl)piperidin-4-yl)-9,10-dihydro-4H-benzo[d]pyrazolo[1,5-a][1,3]diazepine-3-carboxamide], on BTK, it took 16.3 nM to reach half-maximal degradation (DC50).

`NC(=O)c1c(-c2ccc(Oc3ccccc3)cc2)nn2c1Nc1cc(N3CCN(CC4CCN(c5ccc6c(c5)C(=O)N(C5CCC(=O)NC5=O)C6=O)CC4)CC3)ccc1CC2` (stereo not shown) [Example A15, 6-(4-((1-(2-(2,6-dioxopiperidin-3-yl)-1,3-dioxoisoindolin-5-yl)piperidin-4-yl)methyl)piperazin-1-yl)-2-(4-phenoxyphenyl)-9,10-dihydro-4H-benzo[d]pyrazolo[1,5-a][1,3]diazepine-3-carboxamide]: the 50% degradation concentration (DC50) on BTK stood at 27.9 nM.

As to `Cc1cccc(NC(=O)c2ccc(-c3nn4c(c3C(N)=O)Nc3ccc(N5CCN(CC6CCN(c7ccc(CN8CCC(=O)NC8=O)cc7)CC6)CC5)cc3CC4)c(F)c2C)n1` [Example B69, 7-(4-((1-(4-((2,4-dioxotetrahydropyrimidin-1(2H)-yl)methyl)phenyl)piperidin-4-yl)methyl)piperazin-1-yl)-2-(2-fluoro-3-methyl-4-((6-methylpyridin-2-yl)carbamoyl)phenyl)-9,10-dihydro-4H-benzo[d]pyrazolo[1,5-a][1,3]diazepine-3-carboxamide], it took 8.05 nM to reach half-maximal degradation at BTK (DC50). The same measure, in the same setting: the result for `NC(=O)c1c(-c2ccc(Oc3ccccc3)cc2)nn2c1Nc1cc(C(=O)NC3CCN(CC4CCN(c5cc6c(cc5F)C(=O)N(C5CCC(=O)NC5=O)C6=O)CC4)CC3)ccc1CC2` (stereo not shown) [Example A17, N^6-(1-((1-(2-(2,6-dioxopiperidin-3-yl)-6-fluoro-1,3-dioxoisoindolin-5-yl)piperidin-4-yl)methyl)piperidin-4-yl)-2-(4-phenoxyphenyl)-9,10-dihydro-4H-benzo[d]pyrazolo[1,5-a][1,3]diazepine-3,6-dicarboxamide] reads 14.4 nM; that for `NC(=O)c1c(-c2ccc(Oc3ccccc3)cc2)nn2c1Nc1ccc(N3CCN(CCC4CCN(c5ccc(N6CCC(=O)NC6=O)cc5)CC4)CC3)cc1CC2` [Example A22, 7-(4-(2-(1-(4-(2,4-dioxotetrahydropyrimidin-1(2H)-yl)phenyl)piperidin-4-yl)ethyl)piperazin-1-yl)-2-(4-phenoxyphenyl)-9,10-dihydro-4H-benzo[d]pyrazolo[1,5-a][1,3]diazepine-3-carboxamide], 1.31 nM; that for `NC(=O)c1c(-c2ccc(Oc3ccccc3)cc2)nn2c1Nc1ccc(NCC3CCN(c4cc5c(cc4F)C(=O)N(C4CCC(=O)NC4=O)C5=O)CC3)cc1CC2` (stereo not shown) [Example A16, 7-(((1-(2-(2,6-dioxopiperidin-3-yl)-6-fluoro-1,3-dioxoisoindolin-5-yl)piperidin-4-yl)methyl)amino)-2-(4-phenoxyphenyl)-9,10-dihydro-4H-benzo[d]pyrazolo[1,5-a][1,3]diazepine-3-carboxamide], 9.71 nM. Consider `Cc1c(C(=O)Nc2cscn2)ccc(-c2nn3c(c2C(N)=O)Nc2ccc(N4CCN(CCc5cc(F)c([C@H]6CCC(=O)NC6=O)c(F)c5)CC4)cc2CC3)c1F` [Example B95, (R)-7-(4-(4-(2,6-dioxopiperidin-3-yl)-3,5-difluorophenethyl)piperazin-1-yl)-2-(2-fluoro-3-methyl-4-(thiazol-4-ylcarbamoyl)phenyl)-9,10-dihydro-4H-benzo[d]pyrazolo[1,5-a] [1,3]diazepine-3-carboxamide], for which it took 1.7 nM to reach half-maximal degradation at BTK (DC50). This DC50 lies about 5.7-fold lower than the previous one. Take `Cc1c(C(=O)Nc2cn(C)cn2)ccc(-c2nn3c(c2C(N)=O)Nc2ccc(N4CCN(CCc5cc(F)c([C@H]6CCC(=O)NC6=O)c(F)c5)CC4)cc2CC3)c1F` [Example B89, (R)-7-(4-(4-(2,6-dioxopiperidin-3-yl)-3,5-difluorophenethyl)piperazin-1-yl)-2-(2-fluoro-3-methyl-4-((1-methyl-1H-imidazol-4-yl)carbamoyl)phenyl)-9,10-dihydro-4H-benzo[d]pyrazolo[1,5-a][1,3]diazepine-3-carboxamide]: the IC50 in the assay on HEK-293 cells was over 10000 nM. `Cc1cccc(NC(=O)c2ccc(-c3nn4c(c3C(N)=O)Nc3ccc(N5CCN(CC6CCN(c7cccc(CN8CCC(=O)NC8=O)c7)CC6)CC5)cc3CC4)c(F)c2C)n1` [Example B70, 7-(4-((1-(3-((2,4-dioxotetrahydropyrimidin-1(2H)-yl)methyl)phenyl)piperidin-4-yl)methyl)piperazin-1-yl)-2-(2-fluoro-3-methyl-4-((6-methylpyridin-2-yl)carbamoyl)phenyl)-9,10-dihydro-4H-benzo[d]pyrazolo[1,5-a][1,3]diazepine-3-carboxamide] registered a 50% degradation concentration (DC50) on BTK of 8.66 nM. Still for that read-out and setting: the result for `NC(=O)c1c(-c2ccc(Oc3ccccc3)cc2)nn2c1Nc1cc(C(=O)N3CCN(CC4CCN(c5ccc6c(c5)C(=O)N(C5CCC(=O)NC5=O)C6=O)CC4)CC3)ccc1CC2` (stereo not shown) [Example A19, 6-(4-((1-(2-(2,6-dioxopiperidin-3-yl)-1,3-dioxoisoindolin-5-yl)piperidin-4-yl)methyl)piperazine-1-carbonyl)-2-(4-phenoxyphenyl)-9,10-dihydro-4H-benzo[d]pyrazolo[1,5-a][1,3]diazepine-3-carboxamide] reads 17.9 nM.
